Data as given in patent US7595300B2, “7-quinolyl ketolide antibacterial agents” (priority 2005, dated 2009).
Like-named read-outs stand apart in the source and are kept apart here.

Tests used:
[1] = tested on: cryopreserved human hepatocytes; settings: 4 h
Description: In a second experiment, the hepatotoxicity of compound (III) was estimated using cryopreserved human hepatocytes pooled from four donors, measuring leakage of cellular lactate dehydrogenase (LDH). Each donor was selected for the study based on the activity of cytochrome P450 (phase I) and uridine diphosphoglucuronosyl transferases (phase II). Hepatocytes were initially prepared from human livers by collagenase perfusion and subsequently cryogenically frozen. Viable cryopreserved hepatocytes were enriched in accordance with BD Biosciences Discovery Labware SOP HP-10. Hepatocytes were rapidly thawed, pooled and incubated in Williams' E medium at a density of 2×10^6 cells/ml at 37° C. in an incubator for 30 min. After incubation, the viable cells were separated with 24% Percoll gradient and resuspended in WME at a density of 1×10^6 cells/ml. Initial viability was determined by trypan blue exclusion. Hepatocytes were incubated in a 24-well plate and each well contained 0.25×10^6 cells in 0.5 ml of WME medium. Three wells were used for determination of total LDH activity (cells+media) and the background activity (incubation media only) at the 0 time point. Briefly, a 100 μl aliquot of cell suspensions from these wells was immediately taken and rapidly centrifuged at 14,000 rpm for 15 seconds. The supernatants were transferred to microcentrifuge tubes and stored at ≦4° C. for measurement of LDH activity present in medium at the 0 time point. Another 100 μl aliquot of cell suspension from same wells was removed, mixed with 100 μl of 0.4% Triton and stored at ≦4° C. for measurement of total LDH activity.
Hepatocytes in other wells were incubated with test article at the concentrations of 200, 67, 22, 7.4, 2.5 and 0.82 μM. […] Hepatocytes were exposed to the test substance and the positive control for 4 hours. After incubation, 100 μl aliquots of cell suspensions were taken and rapidly centrifuged at 14,000 rpm for 15 seconds. The supernatants were transferred to microcentrifuge tubes and stored at ≦4° C. for measurement of LDH activity in incubation medium.
LDH activity in both total (medium+cells) and medium was determined by monitoring the enzymatic formation of NADH from NAD^+ in the presence of L-lactic acid. Briefly, post-centrifugation supernatants were diluted 1:40 with phosphate-buffered saline (pH 7.4). A 100 μl aliquot was mixed with 100 μl LDH reagent containing 7.5 mM NAD^+, 50 mM L-lactic acid in 250 mM Tris-HCl buffer (pH 8.9) in a 96-well plate. The increase in fluorescence due to the formation of NADH were kinetically monitored at Ext. 360 nm, Em. 460 nm, using a Fluorescence plate reader. The percent LDH leakage from cells was calculated by comparing incubation medium values with total LDH activity (see Equation below). The cell viability at each concentration of test articles was reported. % LDH leakage=(LDH activity in medium sample/total LDH activity)*100 The data are summarized in Table 17.

[2] = Pharmacokinetics in the mouse, plasma and lung tissue; format: in vivo; settings: oral gavage 10 mg/kg
Method: The pharmacokinetics of compounds of formula (VIII) and compounds of formula (II) and (III) were measured in the mouse. Compounds were administered either intravenously (i.v.) at 1 mg/kg, or per oral gavage (p.o.) at 10 mg/kg. Plasma samples were taken and analyzed by LC/MS-MS. For lung tissue pharmacokinetics, lungs were removed and homogenized, followed by analyzis by LC/MS-MS.

male beagle dogs = test: Cardiovascular safety in telemetered dogs, intravenous infusion; format: in vivo, dog
Description: Four male beagle dogs, obtained from Marshall Farms USA, Inc. (North Rose, N.Y.), were surgically instrumented with telemetry transducers (Data Sciences International, type RL11M2-D70-PCT) to assess arterial blood pressure (ABP) and lead II electrocardiogram (ECG) parameters.
The dosing route was an intravenous infusion jugular vein access). The infusion was accomplished using a CADD Prizm® ambulatory infusion pump attached to a jacket worn by the dog. The dose duration for the intravenous infusion was 30 min for all doses administered, except the last dose (30 mg/kg) where the infusion period was extended to 45 min to accommodate the larger dose volume required for this dose. The vehicle dose and diluent for the test article was 0.05-M sodium citrate in sterile water for injection.
There was one treatment group of four non-naïve dogs and the study was comprised of both pharmacokinetic and telemetry phases, as summarized in the dose administration table for compound (III) (Table 16) below. At least one week was given between dosings to allow clearance of the drug.
For the telemetry phase of the study, collection of hemodynamic and lead II ECG data commenced approximately 30 min prior to dosing and ended approximately 6 h post-dose. Systolic blood pressure (SBP), diastolic blood pressure (DBP), HR, and lead II ECG variables (PR interval, QRS duration, RR interval, and QT interval) were acquired continuously from each animal during each dose day recording session. The QT interval was corrected for variations in HR using the Fridericia's QTc interval (QTcF).
Data acquired following treatment with vehicle or compound (III) were extracted at −10, −5, 0, 10, 20, 30, 35, 45, 60, 90, 150, 270, and 390 min relative to the start dose time. For all blood pressure and ECG parameters, data following treatment with compound (III) were compared to the time-matched vehicle dose data. Statistical comparisons were made using a one-way ANOVA for repeated measures, followed by the Dunnett's post-hoc test when statistical significance was detected with the ANOVA. Changes were considered statistically significant when p<0.05.
A complete visual scan of the ECG waveforms from the vehicle, 11 mg/kg dose, and 15 mg/kg dose of compound (III) was conducted. All waveforms were examined for gross changes in waveform morphology and arrhythmogenesis.

[3] = dog, intravenous 11 and 15 mg/kg

## CC1CC(N(C)C)C(O)C(O[C@@H]2[C@@H](C)C(=O)[C@](C)(F)C(=O)O[C@H](CCF)[C@@]3(C)OC(=O)N[C@@H]3[C@@H](C)C(=O)[C@H](C)C[C@@]2(C)OC/C=C/c2ccc3cccnc3c2)O1 (some centres unmarked) [Compound (III), 6-O-(1-(7-quinolyl)-3-propenyl)-11-amino-11-deoxy-3-(descladinosyl)-3-oxo-2,15-difluoroerythromycin A-11,12-cyclic carbamate]
[1]; 0.82 μM
  LDH leakage (%): 6.1 ± 0.63%
  Viability (%): 94 ± 0.63%
[1]; 2.5 μM
  LDH leakage (%): 3.9 ± 2.8%
  Viability (%): 96 ± 2.8%
[1]; 7.4 μM
  LDH leakage (%): 10 ± 2.9%
  Viability (%): 90 ± 2.9%
[1]; 22 μM
  LDH leakage (%): 12 ± 0.74%
  Viability (%): 88 ± 0.74%
[1]; 67 μM
  LDH leakage (%): 6.7 ± 1.3%
  Viability (%): 93 ± 1.3%
[1]; 200 μM
  LDH leakage (%): 7.6 ± 4.2%
  Viability (%): 92 ± 4.2%
[2]; mouse lung tissue
  Lung AUC: 45.9 ug/mL-h
  Lung Cmax: 8.7 µg/mL
[2]; mouse plasma
  AUC: 16.2 µg·h/mL
  Cmax: 3 µg/mL
Male beagle dogs; dog, intravenous 11 mg/kg
  effect on mean HR: no effect
  effect on the QRS duration: no effect
Male beagle dogs; dog, intravenous 15 mg/kg, at the 90 and 390 time points
  effect on mean HR: Significant (p<0.05) decreases in mean HR
Male beagle dogs; dog, intravenous 30 mg/kg, 35 to 90 min postdose, vs time-matched vehicle
  effect on QTcF: lengthening of the QTcF interval
Male beagle dogs; dog, intravenous 30 mg/kg, 150 to 390 min, p<0.05 at 390 min
  effect on the PR interval: increase in the PR interval
Male beagle dogs; dog, intravenous 30 mg/kg, 390 min postdose
  effect on HR: statistically significant (p<0.05) reduction in the HR
Male beagle dogs; dog, intravenous 11, 15, and 30 mg/kg, during and up to 150 min after infusion
  ABP parameters (SBP, DBP, MAP): remained relatively unchanged
Male beagle dogs; dog, intravenous 11, 15, or 30 mg/kg
  effect on the QT interval relative to the vehicle control: no significant effects
Male beagle dogs; [3]
  effect on QTcF: no significant effects
  effect on the PR interval: No significant effects
Male beagle dogs; dog, intravenous 11 or 15 mg/kg
  waveform morphology or ECG rhythm: no abnormalities
Male beagle dogs; dog, intravenous 15 and 30 mg/kg, pre-drug baseline also lower
  effect on the QRS duration: Significant (p<0.05) decreases in QRS duration
Male beagle dogs; dog, intravenous, study period
  RR interval: remained relatively unchanged
Male beagle dogs; male beagle dogs, intravenous infusion 11 mg/kg or 15.8 mg/kg over 30 minutes
  heart rate-corrected QT interval (QTc), FIG. 6: No significant increase in QTc
Male beagle dogs; telemetered dogs, 30 mg/kg
  effect relative to vehicle: no significant effect
Male beagle dogs; telemetered dogs, intravenous infusion up to 15 mg/kg
  effects on cardiac parameters, including QT interval: no effects
